Measurements from PubChem BioAssay (NCI).
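Compound exposure: 48 hours, 5 concentrations, 96-well plates. TGI marks complete inhibition of growth.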

Key:
Assay in all cases: DTP human tumour cell line panel, 48 h
786-0 renal = system: 786-0 renal
A498 renal = system: A498 renal
A549 NSCLC = system: A549 NSCLC
ACHN renal = system: ACHN renal
BT-549 breast = system: BT-549 breast
CAKI-1 renal = system: CAKI-1 renal
CCRF-CEM leukemia = system: CCRF-CEM leukemia
COLO 205 colon = system: COLO 205 colon
DU-145 prostate = system: DU-145 prostate
EKVX NSCLC = system: EKVX NSCLC
HCC-2998 colon = system: HCC-2998 colon
HCT-116 colon = system: HCT-116 colon
HCT-15 colon = system: HCT-15 colon
HL-60(TB) leukemia = system: HL-60(TB) leukemia
HOP-62 NSCLC = system: HOP-62 NSCLC
HS 578T breast = system: HS 578T breast
HT29 colon = system: HT29 colon
IGROV1 ovarian = system: IGROV1 ovarian
K-562 leukemia = system: K-562 leukemia
KM12 colon = system: KM12 colon
M14 melanoma = system: M14 melanoma
MALME-3M melanoma = system: MALME-3M melanoma
MCF7 breast = system: MCF7 breast
MDA-MB-231 breast = system: MDA-MB-231 breast
MDA-MB-435 = system: MDA-MB-435
MDA-N = system: MDA-N
MOLT-4 leukemia = system: MOLT-4 leukemia
NCI-H226 lung = system: NCI-H226 lung
NCI-H23 lung = system: NCI-H23 lung
NCI-H460 lung = system: NCI-H460 lung
NCI-H522 lung = system: NCI-H522 lung
NCI/ADR-RES ovarian = system: NCI/ADR-RES ovarian
OVCAR-3 ovarian = system: OVCAR-3 ovarian
OVCAR-4 ovarian = system: OVCAR-4 ovarian
OVCAR-5 ovarian = system: OVCAR-5 ovarian
OVCAR-8 ovarian = system: OVCAR-8 ovarian
PC-3 prostate = system: PC-3 prostate
RPMI-8226 leukemia = system: RPMI-8226 leukemia
RXF 393 renal = system: RXF 393 renal
SF-268 CNS = system: SF-268 CNS
SF-295 CNS = system: SF-295 CNS
SF-539 CNS = system: SF-539 CNS
SK-MEL-2 melanoma = system: SK-MEL-2 melanoma
SK-MEL-28 melanoma = system: SK-MEL-28 melanoma
SK-MEL-5 melanoma = system: SK-MEL-5 melanoma
SK-OV-3 ovarian = system: SK-OV-3 ovarian
SN12C renal = system: SN12C renal
SNB-19 CNS = system: SNB-19 CNS
SNB-75 CNS = system: SNB-75 CNS
SR leukemia = system: SR leukemia
SW-620 colon = system: SW-620 colon
T-47D breast = system: T-47D breast
TK-10 renal = system: TK-10 renal
U251 CNS = system: U251 CNS
UACC-257 melanoma = system: UACC-257 melanoma
UACC-62 melanoma = system: UACC-62 melanoma
UO-31 renal = system: UO-31 renal
HOP-92 NSCLC = system: HOP-92 NSCLC
LOX IMVI melanoma = system: LOX IMVI melanoma

Measured: TGI

NC(Cc1c[nH]c2ccccc12)P(=O)(O)O (centres undefined)
> 100 µM: 786-0 renal | A498 renal | A549 NSCLC | ACHN renal | BT-549 breast | CAKI-1 renal | CCRF-CEM leukemia | COLO 205 colon | DU-145 prostate | EKVX NSCLC | HCC-2998 colon | HCT-116 colon | HCT-15 colon | HL-60(TB) leukemia | HOP-62 NSCLC | HS 578T breast | HT29 colon | IGROV1 ovarian | K-562 leukemia | KM12 colon | M14 melanoma | MALME-3M melanoma | MCF7 breast | MDA-MB-231 breast | MDA-MB-435 | MDA-N | MOLT-4 leukemia | NCI-H226 lung | NCI-H23 lung | NCI-H460 lung | NCI-H522 lung | NCI/ADR-RES ovarian | OVCAR-3 ovarian | OVCAR-4 ovarian | OVCAR-5 ovarian | OVCAR-8 ovarian | PC-3 prostate | RPMI-8226 leukemia | RXF 393 renal | SF-268 CNS | SF-295 CNS | SF-539 CNS | SK-MEL-2 melanoma | SK-MEL-28 melanoma | SK-MEL-5 melanoma | SK-OV-3 ovarian | SN12C renal | SNB-19 CNS | SNB-75 CNS | SR leukemia | SW-620 colon | T-47D breast | TK-10 renal | U251 CNS | UACC-257 melanoma | UACC-62 melanoma | UO-31 renal

CCn1ncc(Oc2c(Cl)cc(N)cc2Cl)c(Cl)c1=O
91.1 µM: BT-549 breast
63.6 µM: SF-295 CNS
58.5 µM: HT29 colon
79.6 µM: MDA-N
46.9 µM: COLO 205 colon
77.9 µM: SK-OV-3 ovarian
80.7 µM: SR leukemia
67.6 µM: HS 578T breast
65 µM: SK-MEL-5 melanoma
40.7 µM: OVCAR-3 ovarian
80.8 µM: HCT-116 colon
> 100 µM: 786-0 renal | A498 renal | A549 NSCLC | ACHN renal | CAKI-1 renal | CCRF-CEM leukemia | DU-145 prostate | EKVX NSCLC | HCC-2998 colon | HCT-15 colon | HL-60(TB) leukemia | HOP-62 NSCLC | HOP-92 NSCLC | IGROV1 ovarian | K-562 leukemia | KM12 colon | LOX IMVI melanoma | M14 melanoma | MALME-3M melanoma | MCF7 breast | MDA-MB-231 breast | MDA-MB-435 | NCI-H226 lung | NCI-H23 lung | NCI-H460 lung | NCI/ADR-RES ovarian | OVCAR-4 ovarian | OVCAR-5 ovarian | OVCAR-8 ovarian | PC-3 prostate | RPMI-8226 leukemia | RXF 393 renal | SF-268 CNS | SF-539 CNS | SK-MEL-2 melanoma | SK-MEL-28 melanoma | SN12C renal | SNB-19 CNS | SNB-75 CNS | SW-620 colon | T-47D breast | TK-10 renal | U251 CNS | UACC-257 melanoma | UACC-62 melanoma | UO-31 renal
